Results on one compound are retold here after patent publication US20150366890A1, “COMPOSITIONS AND METHODS FOR TREATING FUNGAL INFECTIONS” (TRUSTEES OF BOSTON UNIVERSITY, priority 2013, published 2015).

The test system of the experiment is S. cerevisiae. As to the kind of experiment: Mitochondrial activity by MitoTracker Red fluorescence. It counts as cell-based. To be noted: drug added to glucose-incubated (SC, 2% glucose) S. cerevisiae. As for the experimental part: It was next sought to assess the mitochondrial activity of AF-treated fungal cells. Yhe MitoTracker Red dye, which enters the mitochondrial matrix by utilizing the proton motive force and thus labels metabolically active mitochondria in viable cells was used (Arita et al., 2006; Tomas et al., 2011). Exponential phase S. cerevisiae were incubated in glucose-free synthetic complete (SC) media for 30 min and then switched to SC containing 2% glucose or non-fermentable acetate for 1.5 hours.
Overnight yeast cultures were diluted into the indicated media and grown to an OD600 of 0.2, at which point the AFs were added. Colony forming units (CFU) were measured by plating six serial dilutions onto YPD agar plates. Cells treated with MCZ were washed before serial dilution to stop growth inhibition associated with high concentrations of MCZ. CFU were counted after three days of incubation on agar plates. When indicated, thiourea (Fluka) was added 30 min prior to the addition of AFs. HPF (10 μM) (Invitrogen) and Mito Tracker (1 μM) (Invitrogen) dyes were added to PBS-washed cells at the indicated time points and incubated for 30 min prior to flow cytometry measurements, which were taken on the FACSCalibur (Becton-Dickinson). All experiments described in this section were conducted in 0.5 ml of SDC in 24-well plates incubated at 900 rpm and 37° C. for C. albicans and 30° C. and 300 rpm for S. cerevisiae. TUNEL assays were conducted as previously described (Ribeiro et al., 2006) and are described in detail in the TUNEL section of the Experimental Procedures.

Take `C[C@@H]1[C@H](O)[C@@H](C)/C=C/C=C/C=C/C=C/C=C/C=C/C=C/[C@H](O[C@@H]2O[C@H](C)[C@@H](O)[C@H](N)[C@@H]2O)C[C@@H]2O[C@](O)(C[C@@H](O)C[C@@H](O)[C@H](O)CC[C@@H](O)C[C@@H](O)CC(=O)O[C@H]1C)C[C@H](O)[C@H]2C(=O)O` [AMB, amphotericin B]: the “increase of MitoTracker fluorescence” value amounted to 60 fold.
